Results from patent US11369615B2, “Agent for improving mitochondrial dysfunction, preventative or therapeutic agent for diseases or symptoms caused by mitochondrial dysfunction, and applications therefor” (JICHI MEDICAL UNIVERSITY, priority 2017, dated 2022).
Counter-ions that a name gives are not always drawn.

Experiments:
[1] = stated as known; cited from earlier work
[2] = system: KCMC10 cells derived from a patient with Leigh syndrome; experiment: Oxidative stress test (BSO-induced cell death), KCMC10 cells; assay type: cell-based, human; conditions: BSO plus agent 1 μM, 48 hours after addition
Excerpt: (§1) In mitochondrial dysfunction, for example, ATP production is damaged and/or oxidative stress increases, with the result that apoptosis of cells is induced. Because of this, individuals having mitochondrial dysfunction are reported to be less tolerant to oxidative stress, compared to normal individuals (Shrader W D et al., Bioorg Med Chem Lett., Jun. 15, 2011, Vol. 21 (12), p. 3693-8, doi: 10.1016/j.bmc1.2011.04.085. electronically published on Apr. 24, 2011, PubMed PMID: 21600768). Then, oxidative stress was given to the skin fibroblasts of individual patients mentioned above to induce apoptosis. Under the conditions, compounds of the drug library were each administered to the cells. In this manner, a primary screening was carried out. Then, candidate pharmaceutical agents selected by the primary screening were subjected to a secondary screening, which is an in-vitro evaluation test such as a mitochondrial function evaluation test and a microarray expression analysis.
(§2) The oxidative stress test is a known pharmaceutical agent screening method, which was carried out under the conditions where cell death was induced by addition of L-buthionine-(S,R)-sulfoximine (BSO) (Arce P M et al., ACS Med Chem Lett., May 31, 2011, Vol. 2 (8), p. 608-13, doi: 10.1021/m1200095w. eCollection, Aug. 11, 2011, PubMed PMID: 24900356; PubMed Central PMCID: PMC4018135). BSO inhibits synthesis of glutathione serving as an antioxidant in the cells to deplete glutathione, raising the level of active oxygen within the cells. The procedure of the test is as follows. The cells to be used in the test were seeded in a 96-well plate for cell culture so as to satisfy a concentration of 5,000 cells/well and 80 μL medium/well and cultured in a CO2 incubator (37° C., 5% CO2) for 24 hours. Twenty four hours after the culture, BSO and each of the pharmaceutical agents (final concentration of 1 μM) of the drug library were together added to the cells within the wells. Forty eight hours after the addition, survival rates were determined. The survival rates were determined by measuring absorbance of formazan generated by use of cell count reagent SF (Nacalai Tesque, Inc.). As a positive control compound, idebenone (Non Patent Literature 1) approved as a therapeutic agent for Leber's hereditary optic neuritis in Europe, was used in the same concentration.
(§3) An oxidative stress test was carried out by using three fibroblast cell lines derived from patients with a mitochondrial disease and provided in 1-2. The pharmaceutical agent showing the survival rate equal to or more than that of idebenone, a positive control compound, was determined to be effective. The results of oxidative stress test of pharmaceutical agents of the drug library to KCMC10 cells are shown in FIG. 2; the results of oxidative stress test of pharmaceutical agents of the drug library to ME54 cells are shown in FIG. 3; and the results of oxidative stress test of pharmaceutical agents of the drug library to ME110 cells are shown in FIG. 4.

[3] = system: ME54 cells derived from a patient with Leigh syndrome; experiment: Oxidative stress test (BSO-induced cell death), ME54 cells; assay type: cell-based, human; conditions: BSO plus agent 1 μM, 48 hours after addition
Excerpt: as §1, §2, §3

[4] = system: ME110 cells derived from a patient with MELAS; experiment: Oxidative stress test (BSO-induced cell death), ME110 cells; assay type: cell-based, human; conditions: BSO plus agent 1 μM, 48 hours after addition
Excerpt: as §1, §2, §3

| SMILES | ability to pass through the blood-brain barrier [1] | survival rate equal to or more than that of idebenone (determined to be effective) [2] | survival rate equal to or more than that of idebenone (determined to be effective) [3] | survival rate equal to or more than that of idebenone (determined to be effective) [4] |
| --- | --- | --- | --- | --- |
| CN1CCc2cccc3c2C1Cc1ccc(O)c(O)c1-3 (stereo not drawn) [(I-1)] | known to be able to pass through the blood-brain barrier | – | – | – |
| CN(C)CCCN1c2ccccc2Sc2ccccc21 [Pharmaceutical agent No. 56, Promazine hydrochloride] | known to be able to pass through the blood-brain barrier | effective | effective | effective |
| CN1CC2c3ccccc3Oc3ccc(Cl)cc3C2C1 (stereo not drawn) [(I-2)] | known to be able to pass through the blood-brain barrier | – | – | – |
| Cc1cc2c(s1)Nc1ccccc1N=C2N1CCN(C)CC1 [Pharmaceutical agent No. 118, Olanzapine] | – | effective | effective | effective |
| CN1C[C@@H]2c3ccccc3Oc3ccc(Cl)cc3[C@H]2C1 [Pharmaceutical agent No. 105, Asenapine maleate] | known to be able to pass through the blood-brain barrier | effective | effective | effective |
| c1ccc2c(c1)Nc1ccccc1S2 [Pharmaceutical agent No. 129, Phenothiazine] | known to be able to pass through the blood-brain barrier | effective | effective | effective |
| CN1CCN(CCCN2c3ccccc3Sc3ccc(Cl)cc32)CC1 [Pharmaceutical agent No. 35, Prochlorperazine dimaleate] | known to be able to pass through the blood-brain barrier | effective | effective | effective |
